In ChEMBL document CHEMBL1201862, “PubChem BioAssay data set” (2004):
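How tested: cells in 96-well plates exposed to compound for 48 hours at five concentrations. GI50: concentration for 50% inhibition of growth.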 Active and inactive are the calls of the source. No stated cut-off is given here; in the data, active = GI50 up to about 1.1 µM and inactive = higher.

Legend:
Test in all cases: NCI anticancer screen, dose series, 48 h
HT-29 = tested on: HT-29
U-251 = tested on: U-251
HCT-116 = tested on: HCT-116
NCI/ADR-RES = tested on: NCI/ADR-RES
K562 = tested on: K562
UO-31 = tested on: UO-31
RXF 393 = tested on: RXF 393
NCI-H226 = tested on: NCI-H226
SW-620 = tested on: SW-620
Malme-3M = tested on: Malme-3M
A549 = tested on: A549
SK-MEL-5 = tested on: SK-MEL-5
RPMI-8226 = tested on: RPMI-8226
HOP-62 = tested on: HOP-62
M14 = tested on: M14
SNB-75 = tested on: SNB-75
OVCAR-4 = tested on: OVCAR-4
KM12 = tested on: KM12
CCRF-CEM = tested on: CCRF-CEM
MCF7 = tested on: MCF7

Row | SMILES | GI50 (HT-29) | GI50 (U-251) | GI50 (HCT-116) | GI50 (NCI/ADR-RES) | GI50 (K562) | GI50 (UO-31) | GI50 (RXF 393) | GI50 (NCI-H226) | GI50 (SW-620) | GI50 (Malme-3M) | GI50 (A549) | GI50 (SK-MEL-5) | GI50 (RPMI-8226) | GI50 (HOP-62) | GI50 (M14) | GI50 (SNB-75) | GI50 (OVCAR-4) | GI50 (KM12) | GI50 (CCRF-CEM) | GI50 (MCF7)
1 | O=C(O)C(O)(c1ccc(-c2ccccc2)cc1)c1ccc(-c2ccccc2)cc1 | 30.2 µM (inactive) | 17.1 µM (inactive) | 23.5 µM (inactive) | 24.5 µM (inactive) | 80.9 µM (inactive) | 42 µM (inactive) | 22 µM (inactive) | 26.9 µM (inactive) | 32.4 µM (inactive) | 23.1 µM (inactive) | 40.4 µM (inactive) | 18.9 µM (inactive) | 56.6 µM (inactive) | 20.1 µM (inactive) | 35 µM (inactive) | 17.1 µM (inactive) | 36 µM (inactive) | 19.9 µM (inactive) | – | –
2 | Nc1nc(SCCc2ccccc2)c2nc[nH]c2n1 | 41.1 µM (inactive) | 58.5 µM (inactive) | 68.5 µM (inactive) | 51.2 µM (inactive) | 48.1 µM (inactive) | 60.7 µM (inactive) | 60.4 µM (inactive) | 61.9 µM (inactive) | 76.9 µM (inactive) | 64.9 µM (inactive) | > 100 µM (inactive) | 45.1 µM (inactive) | – | 50.5 µM (inactive) | 71.3 µM (inactive) | 33 µM (inactive) | > 100 µM (inactive) | > 100 µM (inactive) | 31.2 µM (inactive) | –
3 | O=c1cc(NNc2ccc(F)cc2)[nH]c(=O)[nH]1 | 16.9 µM (inactive) | 25.6 µM (inactive) | 17.9 µM (inactive) | 28.2 µM (inactive) | 17.8 µM (inactive) | 17.9 µM (inactive) | 15.5 µM (inactive) | 24.6 µM (inactive) | 17.5 µM (inactive) | 19.8 µM (inactive) | 18.3 µM (inactive) | 25.7 µM (inactive) | 11 µM (inactive) | 17.1 µM (inactive) | 8.85 µM (inactive) | 12.7 µM (inactive) | 9.68 µM (inactive) | 11.7 µM (inactive) | 12.9 µM (inactive) | –
4 | C1C2CC3CC1CC(c1nn4c(C56CC7CC(CC(C7)C5)C6)nnc4s1)(C2)C3 | > 100 µM (inactive) | > 100 µM (inactive) | > 100 µM (inactive) | > 100 µM (inactive) | > 100 µM (inactive) | > 100 µM (inactive) | > 100 µM (inactive) | > 100 µM (inactive) | > 100 µM (inactive) | > 100 µM (inactive) | > 100 µM (inactive) | > 100 µM (inactive) | > 100 µM (inactive) | > 100 µM (inactive) | > 100 µM (inactive) | > 100 µM (inactive) | > 100 µM (inactive) | > 100 µM (inactive) | > 100 µM (inactive) | –
5 | CCOC(=O)c1c(SC(=O)c2ccc(OC)cc2)n(-c2ccccc2)c(=S)n(-c2ccccc2)c1=O | 46.1 µM (inactive) | 33.6 µM (inactive) | 23.3 µM (inactive) | > 100 µM (inactive) | 42.5 µM (inactive) | – | 49.3 µM (inactive) | 84.1 µM (inactive) | 26.7 µM (inactive) | > 100 µM (inactive) | > 100 µM (inactive) | – | – | > 100 µM (inactive) | 29.7 µM (inactive) | > 100 µM (inactive) | > 100 µM (inactive) | > 100 µM (inactive) | 35.6 µM (inactive) | 30.9 µM (inactive)
6 | CC(C)[Si](OC1=C(C(=O)N(C)c2ccccc2Cl)CCCCC1)(C(C)C)C(C)C | > 100 µM (inactive) | > 100 µM (inactive) | > 100 µM (inactive) | > 100 µM (inactive) | – | > 100 µM (inactive) | > 100 µM (inactive) | > 100 µM (inactive) | > 100 µM (inactive) | > 100 µM (inactive) | > 100 µM (inactive) | > 100 µM (inactive) | > 100 µM (inactive) | > 100 µM (inactive) | > 100 µM (inactive) | > 100 µM (inactive) | > 100 µM (inactive) | > 100 µM (inactive) | – | –
7 | c1ccc2c3nnc(c2c1)SCCSCCCSCCS3 | > 100 µM (inactive) | 36.1 µM (inactive) | > 100 µM (inactive) | 75.3 µM (inactive) | > 100 µM (inactive) | 44.3 µM (inactive) | 38.5 µM (inactive) | 35.6 µM (inactive) | > 100 µM (inactive) | 29.6 µM (inactive) | 91 µM (inactive) | 54.1 µM (inactive) | – | 29.4 µM (inactive) | > 100 µM (inactive) | 3.52 µM (inactive) | 2.9 µM (inactive) | > 100 µM (inactive) | > 100 µM (inactive) | > 100 µM (inactive)
8 | CN1CCC2(CC1)SSC1(CCN(C)CC1)S2 | > 100 µM (inactive) | > 100 µM (inactive) | > 100 µM (inactive) | > 100 µM (inactive) | > 100 µM (inactive) | > 100 µM (inactive) | – | – | > 100 µM (inactive) | – | > 100 µM (inactive) | 60.5 µM (inactive) | > 100 µM (inactive) | > 100 µM (inactive) | > 100 µM (inactive) | > 100 µM (inactive) | > 100 µM (inactive) | > 100 µM (inactive) | > 100 µM (inactive) | –
9 | O=C1C=Cc2c1csc2Br | 96.8 µM (inactive) | 51.2 µM (inactive) | 43.3 µM (inactive) | 33.8 µM (inactive) | 26.5 µM (inactive) | 24.2 µM (inactive) | 71.4 µM (inactive) | – | 22.3 µM (inactive) | 38.1 µM (inactive) | 41.5 µM (inactive) | 69.3 µM (inactive) | – | > 100 µM (inactive) | 19.1 µM (inactive) | > 100 µM (inactive) | 70.8 µM (inactive) | 50.8 µM (inactive) | 16.9 µM (inactive) | 24.9 µM (inactive)
10 | Cc1ccc(S(=O)(=O)N2CCNCCN(S(=O)(=O)c3ccc(C)cc3)CCNCC2)cc1 | 14.1 µM (inactive) | 20.2 µM (inactive) | 15 µM (inactive) | 61.1 µM (inactive) | 14.2 µM (inactive) | 19.8 µM (inactive) | 2.65 µM (inactive) | 19.3 µM (inactive) | 35.5 µM (inactive) | 17.5 µM (inactive) | 34.2 µM (inactive) | 16.3 µM (inactive) | – | 16.6 µM (inactive) | 18.1 µM (inactive) | 20.2 µM (inactive) | 32.2 µM (inactive) | 20.8 µM (inactive) | – | 27.3 µM (inactive)
11 | O=C(Nc1ccccc1)c1cc2ccccc2c(/N=N\c2cccc([N+](=O)[O-])c2)c1O | > 100 µM (inactive) | 24.6 µM (inactive) | > 100 µM (inactive) | > 100 µM (inactive) | 89.3 µM (inactive) | > 100 µM (inactive) | 47.8 µM (inactive) | > 100 µM (inactive) | > 100 µM (inactive) | 7.26 µM (inactive) | > 100 µM (inactive) | > 100 µM (inactive) | – | 41.1 µM (inactive) | > 100 µM (inactive) | 33.5 µM (inactive) | 97.5 µM (inactive) | > 100 µM (inactive) | > 100 µM (inactive) | > 100 µM (inactive)
12 | CCc1ccc(NC(=O)NC(=O)c2ccccc2[N+](=O)[O-])cc1Oc1ncc(Cl)cn1 | 0.0179 µM (active) | 0.0181 µM (active) | 0.0331 µM (active) | – | < 0.0145 µM (active) | < 0.01 µM (active) | < 0.01 µM (active) | 0.0151 µM (active) | 0.0168 µM (active) | < 0.01 µM (active) | 0.0213 µM (active) | < 0.0139 µM (active) | < 0.0159 µM (active) | < 0.0154 µM (active) | 0.0231 µM (active) | < 0.01 µM (active) | 2.61 µM (inactive) | < 0.0161 µM (active) | 0.0213 µM (active) | < 0.01 µM (active)
13 | O=C(Nc1ccccn1)/C(=C\C(=O)c1ccc(Cl)cc1)Nc1ccccc1 | > 10 µM (inactive) | – | – | – | > 10 µM (inactive) | – | > 10 µM (inactive) | – | > 10 µM (inactive) | > 10 µM (inactive) | > 10 µM (inactive) | > 10 µM (inactive) | > 10 µM (inactive) | > 10 µM (inactive) | > 10 µM (inactive) | 5.68 µM (inactive) | > 10 µM (inactive) | > 10 µM (inactive) | > 10 µM (inactive) | > 10 µM (inactive)
14 | CC#CS(=O)(=O)c1ccccc1 | 3.67 µM (inactive) | 12.9 µM (inactive) | 4.36 µM (inactive) | 10.4 µM (inactive) | – | 1.86 µM (inactive) | 14.2 µM (inactive) | 9.91 µM (inactive) | 3.78 µM (inactive) | 2.88 µM (inactive) | 16.1 µM (inactive) | 2.81 µM (inactive) | – | 21.7 µM (inactive) | 5.87 µM (inactive) | 3.01 µM (inactive) | 3.19 µM (inactive) | – | – | 6.87 µM (inactive)
15 | COC(=O)C1=CC(=O)OC1(OO)c1ccc(Br)cc1 (stereo not drawn) | 57.4 µM (inactive) | > 100 µM (inactive) | 47.1 µM (inactive) | > 100 µM (inactive) | 33.7 µM (inactive) | > 100 µM (inactive) | > 100 µM (inactive) | > 100 µM (inactive) | 62.8 µM (inactive) | > 100 µM (inactive) | > 100 µM (inactive) | > 100 µM (inactive) | – | – | > 100 µM (inactive) | > 100 µM (inactive) | > 100 µM (inactive) | > 100 µM (inactive) | 27 µM (inactive) | > 100 µM (inactive)
16 | OCCN(CCO)c1nc(N2CCCCC2)c2nc(N(CCO)CCO)nc(N3CCCCC3)c2n1 [DIPYRIDAMOLE] | 19.5 µM (inactive) | – | 40.3 µM (inactive) | 22 µM (inactive) | 24.8 µM (inactive) | 33 µM (inactive) | – | 48.9 µM (inactive) | 58.3 µM (inactive) | 20.5 µM (inactive) | 38.5 µM (inactive) | 21.6 µM (inactive) | > 10 µM (inactive) | 29 µM (inactive) | 55.8 µM (inactive) | – | 59.4 µM (inactive) | 43 µM (inactive) | 20 µM (inactive) | > 10 µM (inactive)
